Reference: US20080286219A1, “Hydroquinone derivative skin brightening compounds” (priority 2007, published 2008)
pEC50: −log10 of the molar value.

Biological target: Mushroom Tyrosinase (Sigma T3824)
Assay: General in vitro tyrosinase inhibition assay (L-Dopa oxidation to dopachrome)
Format: biochemical
Conditions: for pEC50: 0.5 mM L-Dopa, pH 7.0, 30° C., 475 nm, 18 Units Mushroom Tyrosinase

| SMILES | pEC50 | fold more potent than HQ (compared to HQ) |
| --- | --- | --- |
| Cc1nc(Sc2cc(O)ccc2O)sc1CC(=O)O [Compound X29876-160] | 3.28 | – |
| O=C(O)CSc1cc(O)ccc1O [Compound X29876-163] | 2.03 | – |
| N[C@@H](CSc1cc(O)ccc1O)C(=O)O [Compound X29876-063] | 4.70 | about 25 fold |
| Oc1ccc(O)cc1 [Hydroquinone, hydroquinone] | 3.21 | – |
| N[C@H](CSc1cc(O)ccc1O)C(=O)O [Compound X29876-147] | 4.52 | – |
| COC(=O)[C@@H](N)CSc1cc(O)ccc1O [Compound X29876-145] | 3.89 | – |
| OCCCCCCSc1cc(O)ccc1O [Compound X29876-162] | 5.00 | – |
| CC(=O)C(C)Sc1cc(O)ccc1O (stereo not shown) [Compound X29876-181] | 3.51 | – |
| Oc1ccc(O)c(SCc2cccs2)c1 [Compound X29876-198] | 3.70 | – |
| CCOC(=O)CSc1cc(O)ccc1O [Compound X29876-169] | 2.48 | – |
| CC(C)(Sc1cc(O)ccc1O)C(N)C(=O)O (stereo not shown) [Compound X29876-144] | 4.15 | – |
| CC(=O)N[C@@H](CSc1cc(O)ccc1O)C(=O)O [Compound X29876-018] | 2.31 | – |
| NC(CCC(=O)NC(CSc1cc(O)ccc1O)C(=O)NCC(=O)O)C(=O)O (stereo not shown) [Compound X29876-019] | 1.98 | – |
| C[C@H](CSc1cc(O)ccc1O)C(=O)N1CCC[C@H]1C(=O)O [Compound X29876-155] | 1.91 | – |
| CCOC(=O)[C@@H](N)CSc1cc(O)ccc1O [Compound X29876-064] | 3.60 | – |
